Test results as given in US8088761B2, “Enzyme inhibitors” (Cancer Research Technology Limited, priority 2005, dated 2012).
pIC50: −log10 of the molar value.

How the values were obtained:
[1] = target: T1, Aurora-A (Homo sapiens, UniProt O14965); assay: Flashplate Aurora A enzyme inhibition assay; type: biochemical; conditions: Flashplate assay; IC50 range; read-out: Aurora-A inhibition
T1 sequence (O14965 1-403): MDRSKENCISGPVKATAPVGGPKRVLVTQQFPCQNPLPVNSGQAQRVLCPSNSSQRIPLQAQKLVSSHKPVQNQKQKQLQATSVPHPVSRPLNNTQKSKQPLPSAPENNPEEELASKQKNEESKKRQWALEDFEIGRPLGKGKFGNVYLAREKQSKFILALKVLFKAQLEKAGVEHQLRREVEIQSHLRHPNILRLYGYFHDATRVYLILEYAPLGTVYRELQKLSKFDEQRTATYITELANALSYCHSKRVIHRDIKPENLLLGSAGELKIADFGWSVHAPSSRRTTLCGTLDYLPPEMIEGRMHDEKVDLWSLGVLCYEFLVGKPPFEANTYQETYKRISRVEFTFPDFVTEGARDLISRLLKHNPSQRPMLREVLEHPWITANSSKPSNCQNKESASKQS
Outline: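 This is a radiometric Flashplate format: plates were precoated with DTT, and compound (in 2% DMSO) was mixed with kinase buffer (pH 7.5 Tris, MgCl2, NaCl) containing 1 mM MBP, 20 μM ATP and ^33P-ATP. The reaction was started with 250 ng Aurora-A per well and incubated 2 h at RT. It was then stopped by 10 mM sodium pyrophosphate washing, and plates were scintillation-counted.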

[2] = system: HCT116 cells; assay: Cell viability assay (MTT) in HCT116 cell line; type: cell-based; conditions: Homo sapiens, HCT-116, 72 hrs, IC50 range, read-out: HCT116 cell growth inhibition
Outline: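 MTT read-out (4 hrs, 37 °C, DMSO extraction) following 72 hrs of treatment with 0-50 μM Aurora inhibitor. HCT116 cells were plated a day earlier and tested in triplicate; IC50 derived from the curve.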

SMILES | pIC50 [1] | pIC50 [2]
CN(C)c1ccc(-c2nc3c(N4CCN(CC(=O)N(C)c5nccs5)CC4)c(Br)cnc3[nH]2)cc1 [Example 89, 2-(4-(6-Bromo-2-(4-(dimethylamino)phenyl)-3H-imidazo[4,5-b]pyridin-7-yl)piperazin-1-yl)-N-methyl-N-(thiazol-2-yl)acetamide] | > 6.30 | > 6.30
Cc1nc(CN2CCN(c3c(Br)cnc4[nH]c(-c5ccc(-n6cccn6)cc5)nc34)CC2)cs1 [Example 161, 4-((4-(2-(4-(1H-Pyrazol-1-yl)phenyl)-6-bromo-3H-imidazo[4,5-b]pyridin-7-yl)piperazin-1-yl)methyl)-2-methylthiazole] | > 6.30 | 4.30 to 5.70
COc1ccc(-c2nc3c(N4CCN(Cc5ccc(C(F)(F)F)nc5)CC4)c(Br)cnc3[nH]2)cc1 [Example 124, 6-Bromo-2-(4-methoxyphenyl)-7-(4-((6-(trifluoromethyl)pyridin-3-yl)methyl)piperazin-1-yl)-3H-imidazo[4,5-b]pyridine] | > 6.30 | 5.70 to 6.30
CC(C)(C)OC(=O)NCc1ccc(-c2nc3c(N4CCC(Cc5ccccc5)CC4)c(Br)cnc3[nH]2)cc1 [Example 132, tert-Butyl 4-(7-(4-benzylpiperidin-1-yl)-6-bromo-3H-imidazo[4,5-b]pyridin-2-yl)benzylcarbamate] | > 6.30 | 4.30 to 5.70
CN(C)c1ccc(-c2nc3c(N4CCN(Cc5ccc(Cl)cc5)CC4)c(Br)cnc3[nH]2)cc1 [Example 26, 4-(6-Bromo-7-(4-(4-chlorobenzyl)piperazin-1-yl)-3H-imidazo[4,5-b]pyridin-2-yl)-N,N-dimethylaniline] | > 6.30 | > 6.30
CN(C)c1ccc(-c2nc3c(N4CCN(CC(=O)Nc5ccccc5)CC4)c(Cl)cnc3[nH]2)cc1 [Example 22, 2-(4-(6-Chloro-2-(4-(dimethylamino)phenyl)-3H-imidazo[4,5-b]pyridin-7-yl)piperazin-1-yl)-N-phenylacetamide] | > 6.30 | 4.30 to 5.70
CN(C)c1ccc(-c2nc3c(N4CCN(CCc5ccccc5)CC4)c(Cl)cnc3[nH]2)cc1 [Example 176, 4-(6-Chloro-7-(4-phenethylpiperazin-1-yl)-3H-imidazo[4,5-b]pyridin-2-yl)-N,N-dimethylaniline] | 5.70 to 6.30 | 4.30 to 5.70
O=C(CN1CCN(c2c(Br)cnc3[nH]c(-c4ccccc4)nc23)CC1)Nc1nccs1 [Example 5, 2-[4-(6-Bromo-2-phenyl-3H-imidazo[4,5-b]pyridin-7-yl)-piperazin-1-yl]-N-thiazol-2-yl-acetamide] | > 6.30 | 4.30 to 5.70
CC(c1ccccc1)N1CCN(c2c(Cl)cnc3[nH]c(-c4ccc(N(C)C)cc4)nc23)CC1 (stereo not shown) [Example 17, 4-(6-chloro-7-(4-(1-phenylethyl)piperazin-1-yl)-3H-imidazo[4,5-b]pyridin-2-yl)-N,N-dimethylaniline] | > 6.30 | 5.70 to 6.30
Clc1cnc2[nH]c(-c3ccc(CN4CCNCC4)cc3)nc2c1N1CCN(Cc2cncnc2)CC1 [Example 141, 6-Chloro-2-(4-(piperazin-1-ylmethyl)phenyl)-7-(4-(pyrimidin-5-ylmethyl)piperazin-1-yl)-3H-imidazo[4,5-b]pyridine] | > 6.30 | 5.70 to 6.30
NCc1ccc(-c2nc3c(N4CCC(Cc5ccccc5)CC4)c(Br)cnc3[nH]2)cc1 [Example 133, (4-(7-(4-Benzylpiperidin-1-yl)-6-bromo-3H-imidazo[4,5-b]pyridin-2-yl)phenyl)methanamine] | > 6.30 | 5.70 to 6.30
Cc1nc(CN2CCN(c3c(Cl)cnc4[nH]c(-c5ccc(Cn6cccn6)cc5)nc34)CC2)cs1 [Example 173, 4-((4-(2-(4-((1H-Pyrazol-1-yl)methyl)phenyl)-6-chloro-3H-imidazo[4,5-b]pyridin-7-yl)piperazin-1-yl)methyl)-2-methylthiazole] | > 6.30 | > 6.30
CN(C)c1ccc(-c2nc3c(N4CCC(CC(=O)Nc5nccs5)CC4)c(Br)cnc3[nH]2)cc1 [Example 90, 2-{1-[6-Bromo-2-(4-dimethylamino-phenyl)-3H-imidazo[4,5-b]pyridin-7-yl]-piperidin-4-yl}-N-thiazol-2-yl-acetamide] | > 6.30 | 5.70 to 6.30
O=C(CN1CCN(c2c(Cl)cnc3[nH]c(-c4ccc(CN5CCOCC5)cc4)nc23)CC1)Nc1nccs1 [Example 76, 2-{4-[6-Chloro-2-(4-morpholin-4-ylmethyl-phenyl)-3H-imidazo[4,5-b]pyridin-7-yl]-piperazin-1-yl}-N-thiazol-2-yl-acetamide] | > 6.30 | > 6.30
COc1ccc(-c2nc3c(N4CCN(Cc5ccc(OC)nc5)CC4)c(Br)cnc3[nH]2)cc1 [Example 116, 6-Bromo-2-(4-methoxyphenyl)-7-(4-((6-methoxypyridin-3-yl)methyl)piperazin-1-yl)-3H-imidazo[4,5-b]pyridine] | > 6.30 | 5.70 to 6.30
Brc1cnc2[nH]c(-c3ccc(N4CCOCC4)cc3)nc2c1N1CCN(Cc2cccnc2)CC1 [Example 102, 4-(4-(6-Bromo-7-(4-(pyridin-3-ylmethyl)piperazin-1-yl)-3H-imidazo[4,5-b]pyridin-2-yl)phenyl)morpholine] | > 6.30 | > 6.30
COc1ccc(-c2nc3c(N4CCN(Cc5cncn5C)CC4)c(Br)cnc3[nH]2)cc1 [Example 165, 6-Bromo-2-(4-methoxyphenyl)-7-(4-((1-methyl-1H-imidazol-5-yl)methyl)piperazin-1-yl)-3H-imidazo[4,5-b]pyridine] | > 6.30 | 5.70 to 6.30
CN(C)Cc1ccc(-c2nc3c(N4CCN(CC(=O)Nc5nccs5)CC4)c(Br)cnc3[nH]2)cc1 [Example 8, 2-{4-[6-Bromo-2-(4-dimethylaminomethyl-phenyl)-3H-imidazo[4,5-b]pyridin-7-yl]-piperazin-1-yl}-N-thiazol-2-yl-acetamide] | > 6.30 | 5.70 to 6.30
CC(c1ccncc1)N1CCN(c2c(Br)cnc3[nH]c(-c4ccc(N(C)C)cc4)nc23)CC1 (stereo not shown) [Example 53, 4-(6-Bromo-7-(4-(1-(pyridin-4-yl)ethyl)piperazin-1-yl)-3H-imidazo[4,5-b]pyridin-2-yl)-N,N-dimethylaniline] | > 6.30 | 5.70 to 6.30
COc1ccc(-c2nc3c(N4CCN(Cc5ccncc5)CC4)c(Cl)cnc3[nH]2)cc1 [Example 35, 6-Chloro-2-(4-methoxyphenyl)-7-(4-(pyridin-4-ylmethyl)piperazin-1-yl)-3H-imidazo[4,5-b]pyridine] | > 6.30 | 5.70 to 6.30
OC1CCN(c2ccc(-c3nc4c(N5CCN(Cc6cccnc6)CC5)c(Br)cnc4[nH]3)cc2)CC1 [Example 114, 1-(4-(6-Bromo-7-(4-(pyridin-3-ylmethyl)piperazin-1-yl)-3H-imidazo[4,5-b]pyridin-2-yl)phenyl)piperidin-4-ol] | > 6.30 | > 6.30
Brc1cnc2[nH]c(-c3ccc(CN4CCNCC4)cc3)nc2c1N1CCN(Cc2cscn2)CC1 [Example 179, 4-((4-(6-Bromo-2-(4-(piperazin-1-ylmethyl)phenyl)-3H-imidazo[4,5-b]pyridin-7-yl)piperazin-1-yl)methyl)thiazole] | > 6.30 | 5.70 to 6.30
Brc1cnc2[nH]c(-c3ccc(CN4CCOCC4)cc3)nc2c1N1CCN(Cc2cscn2)CC1 [Example 160, 4-(4-(6-Bromo-7-(4-(thiazol-4-ylmethyl)piperazin-1-yl)-3H-imidazo[4,5-b]pyridin-2-yl)benzyl)morpholine] | > 6.30 | > 6.30
